Test results: US20250353891A1 (MEDIMMUNE LIMITED, priority 2022, published 2025)
Starred links: 1 amine or outer side, 2 acyl side, 3 side chain; linkers in the order of their positions; H or OH if unused. Non-standard residues stand in square brackets, D forms with d. Residues, ends and D or L forms follow the SMILES beside them. Groups on a side chain read outwards from the residue. *: point of attachment. C18 diacid = O=C(O)CCCCCCCCCCCCCCCCC(=O)*; γGlu = O=C(O)[C@H](CCC(=O)[*:2])N[*:1]; αMeF = C[C@](N)(Cc1ccccc1)C(=O)O; AEEA = NCCOCCOCC(=O)O; Aib = CC(C)(N)C(=O)O

Key:
[1] = target: human GLP-1 receptor (hGLP-1R) (Homo sapiens, UniProt P43220); test: cAMP production (HTRF) in CHO cells expressing hGLP-1R; format: cell-based; parameters: expressed in transfected cells; conditions: for EC50: Table 6, peptides modified at position 17, cAMP in CHO hGLP-1R cells, geometric mean, read-out: hGLP-1R EC50; for % Relative Potency Ratio: Table 6, % GLP-1R activity relative to GLP-1 / % GlucR activity relative to glucagon
Summary of the method: (§1)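 Potency values represent EC50 from 4-parameter logistic curves of HTRF % Delta F signal. Receptor-expressing CHO cells (hGCGR 2×10^5 cells/mL, hGLP-1R 1×10^5 cells/mL) were exposed for 30 min at room temperature before two-step cAMP detection.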

[2] = target: human glucagon receptor (hGCGR) (Homo sapiens, UniProt P47871); test: cAMP production (HTRF) in CHO cells expressing hGCGR; format: cell-based; parameters: expressed in transfected cells; conditions: Table 6, peptides modified at position 17; cAMP in CHO hGCGR cells; geometric mean; read-out: hGluc-R EC50
Summary of the method: as §1

Sequence of human glucagon receptor (hGCGR) (P47871 26-477): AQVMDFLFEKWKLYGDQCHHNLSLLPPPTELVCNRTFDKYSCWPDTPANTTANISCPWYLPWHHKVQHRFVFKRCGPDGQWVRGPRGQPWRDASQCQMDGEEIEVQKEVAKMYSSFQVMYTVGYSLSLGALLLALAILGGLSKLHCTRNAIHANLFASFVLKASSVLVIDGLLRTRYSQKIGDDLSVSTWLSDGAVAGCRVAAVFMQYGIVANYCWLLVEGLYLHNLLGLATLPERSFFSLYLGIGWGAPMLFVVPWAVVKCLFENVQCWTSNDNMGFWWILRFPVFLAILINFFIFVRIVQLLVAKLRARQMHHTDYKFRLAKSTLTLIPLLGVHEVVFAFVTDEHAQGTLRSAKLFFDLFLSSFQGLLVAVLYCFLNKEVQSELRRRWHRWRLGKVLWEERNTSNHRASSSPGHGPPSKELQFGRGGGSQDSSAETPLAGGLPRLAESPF
Sequence of human GLP-1 receptor (hGLP-1R) (P43220 24-463): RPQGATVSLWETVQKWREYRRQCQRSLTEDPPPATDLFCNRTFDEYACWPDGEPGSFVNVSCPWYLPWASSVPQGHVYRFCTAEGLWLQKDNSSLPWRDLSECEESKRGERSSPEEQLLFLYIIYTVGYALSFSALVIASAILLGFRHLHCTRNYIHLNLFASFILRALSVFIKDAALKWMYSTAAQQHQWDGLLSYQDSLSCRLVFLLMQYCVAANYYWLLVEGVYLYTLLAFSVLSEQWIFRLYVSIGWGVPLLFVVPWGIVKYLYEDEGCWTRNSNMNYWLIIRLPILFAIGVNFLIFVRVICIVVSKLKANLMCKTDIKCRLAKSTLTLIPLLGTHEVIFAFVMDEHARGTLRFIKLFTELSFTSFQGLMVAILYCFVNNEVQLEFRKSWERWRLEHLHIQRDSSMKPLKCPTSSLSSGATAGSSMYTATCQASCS

EC50 [1] | % Relative Potency Ratio [1] | EC50 [2] | Compound
107 pM | 11.7 | 629 pM | CC(C)C[C@H](NC(=O)[C@H](Cc1c[nH]c2ccccc12)NC(=O)[C@H](CCC(N)=O)NC(=O)[C@@H](NC(=O)[C@H](Cc1ccccc1)NC(=O)[C@H](CC(=O)O)NC(=O)C(C)(C)NC(=O)[C@H](C)NC(=O)[C@H](CCCNC(=N)N)NC(=O)[C@H](CCCCNC(=O)COCCOCCNC(=O)COCCOCCNC(=O)CC[C@H](NC(=O)CCCCCCCCCCCCCCCCC(=O)O)C(=O)O)NC(=O)[C@H](CO)NC(=O)[C@H](CC(=O)O)NC(=O)[C@H](CC(C)C)NC(=O)[C@](C)(Cc1ccccc1)NC(=O)[C@H](CCCCN)NC(=O)[C@H](CO)NC(=O)[C@@H](NC(=O)[C@H](CC(=O)O)NC(=O)[C@H](CO)NC(=O)[C@@H](NC(=O)[C@H](Cc1ccccc1)NC(=O)[C@@H](NC(=O)CNC(=O)[C@H](CCC(N)=O)NC(=O)C(C)(C)NC(=O)[C@@H](N)Cc1c[nH]cn1)[C@@H](C)O)[C@@H](C)O)C(C)C)C(C)C)C(=O)N[C@@H](CC(C)C)C(=O)NC(C)(C)C(=O)N[C@H](C(=O)O)[C@@H](C)O [Peptide 29] (H-H[Aib]QGTFTSDVSK[αMeF]LDSK([AEEA-AEEA-γGlu-C18 diacid])RA[Aib]DFVQWLL[Aib]T-OH; N-terminus assumed)
13 pM | 36.7 | 240 pM | CC[C@H](C)[C@H](NC(=O)[C@H](Cc1c[nH]c2ccccc12)NC(=O)[C@H](CCC(N)=O)NC(=O)[C@@H](NC(=O)[C@H](Cc1ccccc1)NC(=O)[C@H](CC(=O)O)NC(=O)C(C)(C)NC(=O)[C@H](C)NC(=O)[C@H](CCCNC(=N)N)NC(=O)[C@H](CCCCNC(=O)CC[C@H](NC(=O)CCCCCCCCCCCCCCCCC(=O)O)C(=O)O)NC(=O)[C@H](CO)NC(=O)[C@H](CC(=O)O)NC(=O)[C@H](CC(C)C)NC(=O)[C@](C)(Cc1ccccc1)NC(=O)[C@H](CCCCN)NC(=O)[C@H](CO)NC(=O)[C@@H](NC(=O)[C@H](CC(=O)O)NC(=O)[C@H](CO)NC(=O)[C@@H](NC(=O)[C@H](Cc1ccccc1)NC(=O)[C@@H](NC(=O)CNC(=O)[C@H](CCC(N)=O)NC(=O)C(C)(C)NC(=O)[C@@H](N)Cc1c[nH]cn1)[C@@H](C)O)[C@@H](C)O)C(C)C)C(C)C)C(=O)N[C@@H](C)C(=O)N[C@@H](CC(N)=O)C(=O)N[C@H](C(N)=O)[C@@H](C)O [Peptide 32] (H-H[Aib]QGTFTSDVSK[αMeF]LDSK([γGlu-C18 diacid])RA[Aib]DFVQWIANT-NH2; N-terminus assumed)
82.4 pM | 3.9 | 161 pM | CC(C)C[C@H](NC(=O)[C@H](Cc1c[nH]c2ccccc12)NC(=O)[C@H](CCC(N)=O)NC(=O)[C@@H](NC(=O)[C@H](Cc1ccccc1)NC(=O)[C@H](CC(=O)O)NC(=O)[C@H](CCC(N)=O)NC(=O)[C@H](C)NC(=O)[C@H](CCCNC(=N)N)NC(=O)[C@H](CCCCNC(=O)COCCOCCNC(=O)COCCOCCNC(=O)CC[C@H](NC(=O)CCCCCCCCCCCCCCCCC(=O)O)C(=O)O)NC(=O)[C@H](CO)NC(=O)[C@H](CC(=O)O)NC(=O)[C@H](CC(C)C)NC(=O)[C@](C)(Cc1ccccc1)NC(=O)[C@H](CCCCN)NC(=O)[C@H](CO)NC(=O)[C@@H](NC(=O)[C@H](CC(=O)O)NC(=O)[C@H](CO)NC(=O)[C@@H](NC(=O)[C@H](Cc1ccccc1)NC(=O)[C@@H](NC(=O)CNC(=O)[C@H](CCC(N)=O)NC(=O)C(C)(C)NC(=O)[C@@H](N)Cc1c[nH]cn1)[C@@H](C)O)[C@@H](C)O)C(C)C)C(C)C)C(=O)N[C@@H](CC(C)C)C(=O)NC(C)(C)C(=O)N[C@@H](CCC(=O)O)C(=O)O [Peptide 34] (H-H[Aib]QGTFTSDVSK[αMeF]LDSK([AEEA-AEEA-γGlu-C18 diacid])RAQDFVQWLL[Aib]E-OH; N-terminus assumed)

Further lines, the compound ahead of its results:

Compound | EC50 [1] | % Relative Potency Ratio [1] | EC50 [2]
CC(C)C[C@H](NC(=O)[C@H](Cc1c[nH]c2ccccc12)NC(=O)[C@H](CCCNC(=N)N)NC(=O)[C@@H](NC(=O)[C@H](Cc1ccccc1)NC(=O)[C@H](CC(=O)O)NC(=O)[C@H](CCC(N)=O)NC(=O)[C@H](C)NC(=O)[C@H](CCCNC(=N)N)NC(=O)[C@H](CCCCNC(=O)COCCOCCNC(=O)COCCOCCNC(=O)CC[C@H](NC(=O)CCCCCCCCCCCCCCCCC(=O)O)C(=O)O)NC(=O)[C@H](CO)NC(=O)[C@H](CC(=O)O)NC(=O)[C@H](CC(C)C)NC(=O)[C@](C)(Cc1ccccc1)NC(=O)[C@H](CCCCN)NC(=O)[C@H](CO)NC(=O)[C@@H](NC(=O)[C@H](CC(=O)O)NC(=O)[C@H](CO)NC(=O)[C@@H](NC(=O)[C@H](Cc1ccccc1)NC(=O)[C@@H](NC(=O)CNC(=O)[C@H](CCC(N)=O)NC(=O)C(C)(C)NC(=O)[C@@H](N)Cc1c[nH]cn1)[C@@H](C)O)[C@@H](C)O)C(C)C)C(C)C)C(=O)N[C@@H](CC(C)C)C(=O)NC(C)(C)C(=O)N[C@H](C(=O)NCC(=O)O)[C@@H](C)O [Peptide 30] (H-H[Aib]QGTFTSDVSK[αMeF]LDSK([AEEA-AEEA-γGlu-C18 diacid])RAQDFVRWLL[Aib]TG-OH; N-terminus assumed) | 52.7 pM | 8.8 | 235 pM
CC(C)C[C@H](NC(=O)[C@H](Cc1c[nH]c2ccccc12)NC(=O)[C@H](CCCNC(=N)N)NC(=O)[C@@H](NC(=O)[C@H](Cc1ccccc1)NC(=O)[C@H](CC(=O)O)NC(=O)[C@H](CCC(N)=O)NC(=O)[C@H](C)NC(=O)[C@H](CCCNC(=N)N)NC(=O)[C@H](CCCCNC(=O)COCCOCCNC(=O)COCCOCCNC(=O)CC[C@H](NC(=O)CCCCCCCCCCCCCCCCC(=O)O)C(=O)O)NC(=O)[C@H](CO)NC(=O)[C@H](CC(=O)O)NC(=O)[C@H](CC(C)C)NC(=O)[C@](C)(Cc1ccccc1)NC(=O)[C@H](CCCCN)NC(=O)[C@H](CO)NC(=O)[C@@H](NC(=O)[C@H](CC(=O)O)NC(=O)[C@H](CO)NC(=O)[C@@H](NC(=O)[C@H](Cc1ccccc1)NC(=O)[C@@H](NC(=O)CNC(=O)[C@H](CCC(N)=O)NC(=O)C(C)(C)NC(=O)[C@@H](N)Cc1c[nH]cn1)[C@@H](C)O)[C@@H](C)O)C(C)C)C(C)C)C(=O)N[C@@H](CC(C)C)C(=O)N[C@@H](CCC(=O)O)C(=O)NC(C)(C)C(=O)NCC(=O)O [Peptide 31] (H-H[Aib]QGTFTSDVSK[αMeF]LDSK([AEEA-AEEA-γGlu-C18 diacid])RAQDFVRWLLE[Aib]G-OH; N-terminus assumed) | 41.3 pM | 2.7 | 56.8 pM
CC(C)C[C@H](NC(=O)[C@H](Cc1c[nH]c2ccccc12)NC(=O)[C@H](CCC(N)=O)NC(=O)[C@@H](NC(=O)[C@H](Cc1ccccc1)NC(=O)[C@H](CC(=O)O)NC(=O)[C@H](CCC(N)=O)NC(=O)[C@H](C)NC(=O)[C@H](CCCNC(=N)N)NC(=O)[C@H](CCCCNC(=O)COCCOCCNC(=O)COCCOCCNC(=O)CC[C@H](NC(=O)CCCCCCCCCCCCCCCCC(=O)O)C(=O)O)NC(=O)[C@H](CO)NC(=O)[C@H](CC(=O)O)NC(=O)[C@H](CC(C)C)NC(=O)[C@](C)(Cc1ccccc1)NC(=O)[C@H](CCCCN)NC(=O)[C@H](CO)NC(=O)[C@@H](NC(=O)[C@H](CC(=O)O)NC(=O)[C@H](CO)NC(=O)[C@@H](NC(=O)[C@H](Cc1ccccc1)NC(=O)[C@@H](NC(=O)CNC(=O)[C@H](CCC(N)=O)NC(=O)C(C)(C)NC(=O)[C@@H](N)Cc1c[nH]cn1)[C@@H](C)O)[C@@H](C)O)C(C)C)C(C)C)C(=O)N[C@@H](CCC(=O)O)C(=O)NC(C)(C)C(=O)N[C@H](C(=O)O)[C@@H](C)O [Peptide 33] (H-H[Aib]QGTFTSDVSK[αMeF]LDSK([AEEA-AEEA-γGlu-C18 diacid])RAQDFVQWLE[Aib]T-OH) | 213 pM | 5.1 | 548 pM
